According to PubChem BioAssay (NCI):
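In this assay, cells in 96-well plates receive the compound at five concentrations for 48 hours. Endpoints are linearly interpolated between the surrounding concentrations. At the TGI there is no net growth.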

Columns and labels:
Experiment in all cases: NCI-60 cell line screen, 48 h
[1] = tested on: EKVX NSCLC
[2] = tested on: HCC-2998 colon
[3] = tested on: NCI-H23 lung
[4] = tested on: SNB-75 CNS
[5] = tested on: MOLT-4 leukemia
[6] = tested on: RXF 393 renal
[7] = tested on: NCI/ADR-RES ovarian
[8] = tested on: COLO 205 colon
[9] = tested on: HOP-62 NSCLC
[10] = tested on: OVCAR-4 ovarian
[11] = tested on: KM12 colon
[12] = tested on: IGROV1 ovarian
[13] = tested on: HT29 colon
[14] = tested on: SK-MEL-5 melanoma
[15] = tested on: NCI-H460 lung
[16] = tested on: SW-620 colon
[17] = tested on: BT-549 breast
[18] = tested on: HS 578T breast
[19] = tested on: DU-145 prostate
[20] = tested on: HCT-15 colon
[21] = tested on: TK-10 renal
[22] = tested on: CAKI-1 renal
[23] = tested on: SF-295 CNS
[24] = tested on: MDA-MB-231 breast
[25] = tested on: SR leukemia
[26] = tested on: UACC-257 melanoma
[27] = tested on: PC-3 prostate
[28] = tested on: NCI-H226 lung
[29] = tested on: UO-31 renal
[30] = tested on: HL-60(TB) leukemia
[31] = tested on: LOX IMVI melanoma
[32] = tested on: SK-MEL-28 melanoma
[33] = tested on: A498 renal
[34] = tested on: UACC-62 melanoma
[35] = tested on: SN12C renal
[36] = tested on: SF-268 CNS
[37] = tested on: HCT-116 colon
[38] = tested on: MALME-3M melanoma
[39] = tested on: MDA-MB-435
[40] = tested on: OVCAR-8 ovarian
[41] = tested on: OVCAR-3 ovarian
[42] = tested on: NCI-H522 lung
[43] = tested on: SK-MEL-2 melanoma
[44] = tested on: 786-0 renal
[45] = tested on: MCF7 breast
[46] = tested on: U251 CNS
[47] = tested on: MDA-N
[48] = tested on: OVCAR-5 ovarian
[49] = tested on: K-562 leukemia
[50] = tested on: ACHN renal
[51] = tested on: SK-OV-3 ovarian
[52] = tested on: M14 melanoma
[53] = tested on: A549 NSCLC
[54] = tested on: T-47D breast
[55] = tested on: HOP-92 NSCLC
[56] = tested on: SF-539 CNS
[57] = tested on: SNB-19 CNS
[58] = tested on: CCRF-CEM leukemia
[59] = tested on: RPMI-8226 leukemia

SMILES: O=C(O)c1nc2ccc(C(F)(F)F)cc2nc1Nc1ccc(F)cc1
- TGI [1]: 73.9 µM
- TGI [2]: 34.3 µM
- TGI [3]: 37.6 µM
- TGI [4]: 60 µM
- TGI [5]: 28.9 µM
- TGI [6]: 31.5 µM
- TGI [7]: 84.7 µM
- TGI [8]: 44.1 µM
- TGI [9]: 34.7 µM
- TGI [10]: > 100 µM
- TGI [11]: 63 µM
- TGI [12]: 62.6 µM
- TGI [13]: > 100 µM
- TGI [14]: > 100 µM
- TGI [15]: 50.9 µM
- TGI [16]: 82.2 µM
- TGI [17]: 44.2 µM
- TGI [18]: 96.4 µM
- TGI [19]: 85 µM
- TGI [20]: 70.2 µM
- TGI [21]: > 100 µM
- TGI [22]: 78 µM
- TGI [23]: 37.7 µM
- TGI [24]: 65.6 µM
- TGI [25]: 36.8 µM
- TGI [26]: 78.1 µM
- TGI [27]: 48 µM
- TGI [28]: 57 µM
- TGI [29]: 24.6 µM
- TGI [30]: 33.3 µM
- TGI [31]: 53.3 µM
- TGI [32]: > 100 µM
- TGI [33]: 37.6 µM
- TGI [34]: 27.9 µM
- TGI [35]: 85.6 µM
- TGI [36]: 48.1 µM
- TGI [37]: 35 µM
- TGI [38]: 38.3 µM
- TGI [39]: 44.7 µM
- TGI [40]: 83.8 µM
- TGI [41]: 60.8 µM
- TGI [42]: 24.7 µM
- TGI [43]: 34.8 µM
- TGI [44]: 54.5 µM
- TGI [45]: 61.5 µM
- TGI [46]: > 100 µM
- TGI [47]: 79.6 µM
- TGI [48]: 64.3 µM
- TGI [49]: 43.4 µM
- TGI [50]: > 100 µM

SMILES: COc1nc2ccc(COc3ccc(C(=O)O)cc3)cc2nc1OC
- TGI [1]: > 100 µM
- TGI [2]: > 100 µM
- TGI [3]: > 100 µM
- TGI [51]: > 100 µM
- TGI [4]: 53.4 µM
- TGI [5]: > 100 µM
- TGI [52]: > 100 µM
- TGI [7]: > 100 µM
- TGI [8]: > 100 µM
- TGI [53]: > 100 µM
- TGI [9]: > 100 µM
- TGI [10]: > 100 µM
- TGI [11]: > 100 µM
- TGI [54]: > 100 µM
- TGI [12]: > 100 µM
- TGI [13]: > 100 µM
- TGI [14]: > 100 µM
- TGI [15]: > 100 µM
- TGI [16]: > 100 µM
- TGI [19]: > 100 µM
- TGI [20]: > 100 µM
- TGI [22]: > 100 µM
- TGI [55]: > 100 µM
- TGI [23]: > 100 µM
- TGI [24]: > 100 µM
- TGI [25]: > 100 µM
- TGI [26]: > 100 µM
- TGI [27]: > 100 µM
- TGI [28]: > 100 µM
- TGI [29]: > 100 µM
- TGI [30]: > 100 µM
- TGI [31]: > 100 µM
- TGI [32]: > 100 µM
- TGI [33]: > 100 µM
- TGI [34]: > 100 µM
- TGI [56]: > 100 µM
- TGI [35]: > 100 µM
- TGI [36]: > 100 µM
- TGI [57]: > 100 µM
- TGI [58]: 97.4 µM
- TGI [37]: > 100 µM
- TGI [38]: > 100 µM
- TGI [39]: > 100 µM
- TGI [40]: > 100 µM
- TGI [41]: > 100 µM
- TGI [42]: > 100 µM
- TGI [43]: > 100 µM
- TGI [44]: > 100 µM
- TGI [45]: > 100 µM
- TGI [46]: > 100 µM
- TGI [47]: > 100 µM
- TGI [48]: > 100 µM
- TGI [49]: > 100 µM
- TGI [50]: > 100 µM

SMILES: Cn1cc(S(=O)(=O)NC(=O)Nc2ccc(Cl)cc2)c(=O)c2ccc(F)cc21
- TGI [1]: > 100 µM
- TGI [2]: > 100 µM
- TGI [3]: > 100 µM
- TGI [51]: > 100 µM
- TGI [4]: > 100 µM
- TGI [5]: > 100 µM
- TGI [6]: > 100 µM
- TGI [7]: > 100 µM
- TGI [8]: > 100 µM
- TGI [53]: > 100 µM
- TGI [9]: > 100 µM
- TGI [10]: > 100 µM
- TGI [59]: > 100 µM
- TGI [11]: > 100 µM
- TGI [54]: > 100 µM
- TGI [12]: > 100 µM
- TGI [13]: > 100 µM
- TGI [14]: > 100 µM
- TGI [15]: > 100 µM
- TGI [16]: > 100 µM
- TGI [18]: > 100 µM
- TGI [19]: > 100 µM
- TGI [20]: > 100 µM
- TGI [21]: > 100 µM
- TGI [22]: > 100 µM
- TGI [55]: > 100 µM
- TGI [23]: > 100 µM
- TGI [24]: > 100 µM
- TGI [25]: > 100 µM
- TGI [26]: > 100 µM
- TGI [27]: > 100 µM
- TGI [28]: > 100 µM
- TGI [29]: > 100 µM
- TGI [30]: > 100 µM
- TGI [31]: > 100 µM
- TGI [32]: > 100 µM
- TGI [33]: > 100 µM
- TGI [34]: 63.4 µM
- TGI [56]: > 100 µM
- TGI [35]: > 100 µM
- TGI [36]: > 100 µM
- TGI [57]: > 100 µM
- TGI [58]: > 100 µM
- TGI [37]: > 100 µM
- TGI [38]: > 100 µM
- TGI [39]: > 100 µM
- TGI [40]: > 100 µM
- TGI [42]: > 100 µM
- TGI [43]: > 100 µM
- TGI [44]: > 100 µM
- TGI [46]: > 100 µM
- TGI [47]: > 100 µM
- TGI [48]: > 100 µM
- TGI [49]: > 100 µM
- TGI [50]: > 100 µM

SMILES: C=C(Cl)C(Cl)(CCl)CCC(Br)C(C)(C)Br (configuration not stated)
- TGI [1]: > 10 µM
- TGI [2]: > 10 µM
- TGI [3]: > 10 µM
- TGI [51]: > 10 µM
- TGI [4]: > 10 µM
- TGI [5]: > 10 µM
- TGI [6]: > 10 µM
- TGI [52]: > 10 µM
- TGI [8]: > 10 µM
- TGI [53]: > 10 µM
- TGI [9]: > 10 µM
- TGI [10]: > 10 µM
- TGI [59]: > 10 µM
- TGI [11]: > 10 µM
- TGI [54]: > 10 µM
- TGI [12]: > 10 µM
- TGI [13]: > 10 µM
- TGI [14]: > 10 µM
- TGI [16]: > 10 µM
- TGI [17]: > 10 µM
- TGI [19]: > 10 µM
- TGI [20]: > 10 µM
- TGI [21]: > 10 µM
- TGI [22]: > 10 µM
- TGI [55]: > 10 µM
- TGI [23]: > 10 µM
- TGI [24]: > 10 µM
- TGI [25]: > 10 µM
- TGI [27]: > 10 µM
- TGI [28]: > 10 µM
- TGI [29]: > 10 µM
- TGI [30]: > 10 µM
- TGI [32]: > 10 µM
- TGI [33]: > 10 µM
- TGI [34]: > 10 µM
- TGI [56]: > 10 µM
- TGI [35]: > 10 µM
- TGI [36]: > 10 µM
- TGI [57]: > 10 µM
- TGI [58]: > 10 µM
- TGI [37]: > 10 µM
- TGI [39]: > 10 µM
- TGI [40]: > 10 µM
- TGI [41]: > 10 µM
- TGI [42]: > 10 µM
- TGI [43]: > 10 µM
- TGI [44]: > 10 µM
- TGI [45]: > 10 µM
- TGI [46]: > 10 µM
- TGI [47]: > 10 µM
- TGI [48]: > 10 µM
- TGI [49]: > 10 µM
- TGI [50]: > 10 µM
